From patent US20230357162A1, “COMPOUNDS, COMPOSITIONS AND METHODS” (Denali Therapeutics Inc., priority 2020, published 2023)
pIC50: −log10 of the molar value. Structures can show the parent of a compound that is named as a salt.

System: IL-1β secretion, THP-1 cells
Assay: IL-1β secretion assay in PMA-differentiated THP-1 cells stimulated with LPS and nigericin (ELISA readout)
Type: cell-based
Details: 25 ng/mL LPS then nigericin
Outline: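 THP-1 cells differentiated with 5 ng/mL PMA for 40 h, primed in serum-free medium with 25 ng/mL LPS for 2 h, then compound (0.5% DMSO) for 1 h before nigericin for 2 h at 37°C. Supernatant IL-1β quantified by ELISA; normalized to high (LPS + 5 µM nigericin) and low (LPS only) controls.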

[1] = Homo sapiens, THP-1, inhibition of IL-1β secretion, class column of Table 3
[2] = Homo sapiens, THP-1, inhibition of IL-1β secretion, numeric column of Table 3

| SMILES | pIC50 [1] | pIC50 [2] | pIC50 (inhibition of IL-1β secretion, numeric column of Table 3) |
| --- | --- | --- | --- |
| Cc1cnn(C)c1NC(=O)Cn1nc(C(C)C)c2cc(Br)ccc2c1=O [Example 63, 2-(6-bromo-1-oxo-4-propan-2-ylphthalazin-2-yl)-N-(2,4-dimethylpyrazol-3-yl)acetamide] | 4.82 to 5.00 | 4.89 |  |
| O=C(Cn1nc(OC(F)C2CC2)c2cc(Br)ccc2c1=O)Nc1ncc(F)cn1 (centres unmarked) [Example 168, 2-[6-bromo-4-[cyclopropyl(fluoro)methoxy]-1-oxophthalazin-2-yl]-N-(5-fluoropyrimidin-2-yl)acetamide] | < 4.82 | 4.77 |  |
| Cc1nn(CC(=O)Nc2ncc(F)cn2)c(=O)c2ccc(Br)c(F)c12 [Example 145] | > 5.00 | 6.76 |  |
| N#Cc1cnc(NC(=O)Cn2nc(C(F)F)c3c(F)c(Br)ccc3c2=O)nc1 [Example 133] | > 5.00 | 6.96 |  |
| CC(C)c1nn(CC(=O)Nc2ncncc2F)c(=O)c2ccc(C3CC3)cc12 [Example 19, 2-(6-cyclopropyl-1-oxo-4-propan-2-ylphthalazin-2-yl)-N-(5-fluoropyrimidin-4-yl)acetamide] | > 5.00 | 6.48 |  |
| O=C(Cn1nc([C@H]2C[C@H]2F)c2cc(Br)ccc2c1=O)Nc1ncc(F)cn1 (single isomer, unassigned) [Example 165, 2-[6-bromo-4-[2-cis-fluorocyclopropyl]-1-oxophthalazin-2-yl]-N-(5-fluoropyrimidin-2-yl)acetamide] | > 5.00 |  | 6.21 |
| CC(C)c1nn(CC(=O)N2CCCc3ccccc32)c(=O)c2ccc(Br)cc12 [Example 73, 6-bromo-2-[2-(3,4-dihydro-2H-quinolin-1-yl)-2-oxoethyl]-4-propan-2-ylphthalazin-1-one] | > 5.00 | 5.02 |  |
| CCN1CC(NC(=O)Cn2nc(C(C)C)c3cc(Br)ccc3c2=O)CC(F)(F)C1 (centres unmarked) [Example 12] | > 5.00 | 5.59 |  |
| CCN1CCC[C@@H](NC(=O)Cn2nc(C(F)(F)F)c3ccc(Br)cc3c2=O)C1 [Example 90, 2-[7-bromo-1-oxo-4-(trifluoromethyl)phthalazin-2-yl]-N-[(3R)-1-ethylpiperidin-3-yl]acetamide] | > 5.00 | 5.17 |  |
| CSc1nn(CC(=O)Nc2ncc(F)cn2)c(=O)c2ccc(Br)cc12 [Example 149, 2-(6-bromo-4-methylsulfanyl-1-oxophthalazin-2-yl)-N-(5-fluoropyrimidin-2-yl)acetamide] | > 5.00 | 6.11 |  |
| CC(C)c1nn(CC(=O)NCC2CCCCO2)c(=O)c2ccc(Br)cc12 (centres unmarked) [Example 84, 2-(6-bromo-1-oxo-4-propan-2-ylphthalazin-2-yl)-N-(oxan-2-ylmethyl)acetamide] | > 5.00 | 5.43 |  |
| CCN1CCCC1CNC(=O)Cn1nc(C(C)C)c2cc(Br)ccc2c1=O (centres unmarked) [Example 109, 2-(6-bromo-1-oxo-4-propan-2-ylphthalazin-2-yl)-N-[(1-ethylpyrrolidin-2-yl)methyl]acetamide] | > 5.00 | 5.24 |  |
| CC(F)c1nn(CC(=O)Nc2ncc(F)cn2)c(=O)c2ccc(Br)c(F)c12 (centres unmarked) [Example 144, 2-[6-bromo-5-fluoro-4-(1-fluoroethyl)-1-oxophthalazin-2-yl]-N-(5-fluoropyrimidin-2-yl)acetamide] | > 5.00 | 6.72 |  |
| O=C(Cn1nc(OC2CC2)c2cc(Br)ccc2c1=O)N[C@@H]1CCCNC1 [Example 176, 2-(6-bromo-4-cyclopropyloxy-1-oxophthalazin-2-yl)-N-[(3R)-piperidin-3-yl]acetamide HCl salt] | > 5.00 | 5.37 |  |
| COc1nn(CC(=O)Nc2ncc(F)cn2)c(=O)c2ccc(Br)cc12 [Example 32, 2-(6-bromo-4-methoxy-1-oxophthalazin-2-yl)-N-(5-fluoropyrimidin-2-yl)acetamide] | > 5.00 | 6.89 |  |
| O=C(Cn1nc(CF)c2cc(Br)ccc2c1=O)Nc1ncc(F)cn1 [Example 142, 2-[6-bromo-4-(fluoromethyl)-1-oxophthalazin-2-yl]-N-(5-fluoropyrimidin-2-yl)acetamide] | > 5.00 | 7.04 |  |
| CC(C)c1nn(CC(=O)N[C@@H]2CCCN(CC(F)(F)F)C2)c(=O)c2ccc(Br)cc12 [Example 7, (R)-2-(6-Bromo-4-isopropyl-1-oxophthalazin-2(1H)-yl)-N-(1-(2,2,2-trifluoroethyl)piperidin-3-yl)acetamide] | > 5.00 | 5.99 |  |
| CC(C)c1nn(CC(=O)NCC2CCCN2)c(=O)c2ccc(Br)cc12 (centres unmarked) [Example 108, 2-(6-bromo-1-oxo-4-propan-2-ylphthalazin-2-yl)-N-(pyrrolidin-2-ylmethyl)acetamide HCl salt] | > 5.00 | 5.08 |  |
| CC(C)c1nn(CC(=O)Nc2ncncc2F)c(=O)c2cc(C(F)(F)F)ccc12 [Example 88, N-(5-fluoropyrimidin-4-yl)-2-[1-oxo-4-propan-2-yl-7-(trifluoromethyl)phthalazin-2-yl]acetamide] | < 4.82 | < 4.30 |  |
| O=C(Cn1nc(C(F)F)c2cc(Br)ccc2c1=O)Nc1ncccn1 [Example 93, 2-[6-bromo-4-(difluoromethyl)-1-oxo-phthalazin-2-yl]-N-pyrimidin-2-yl-acetamide] | > 5.00 | 6.85 |  |
| O=C(Cn1nc(CC(F)(F)F)c2cc(Br)ccc2c1=O)Nc1ncncc1F [Example 91, 2-[6-bromo-1-oxo-4-(2,2,2-trifluoroethyl)phthalazin-2-yl]-N-(5-fluoropyrimidin-4-yl)acetamide] | > 5.00 | 6.31 |  |
| CO[C@H]1C[C@H](Oc2nn(CC(=O)Nc3ncc(F)cn3)c(=O)c3ccc(Br)cc23)C1 [Example 160] | > 5.00 | 5.88 |  |
| CC(C)c1nn(CC(=O)Nc2ccn(C)n2)c(=O)c2ccc(Br)cc12 [Example 69, 2-(6-bromo-1-oxo-4-propan-2-ylphthalazin-2-yl)-N-(1-methylpyrazol-3-yl)acetamide] | > 5.00 | 5.77 |  |

Further lines, results first:

| pIC50 [1] | pIC50 [2] | pIC50 (inhibition of IL-1β secretion, numeric column of Table 3) | SMILES |
| --- | --- | --- | --- |
| > 5.00 | 6.75 |  | O=C(Cn1nc(C(F)F)c2c(F)c(C3CC3)ccc2c1=O)Nc1ncc(F)cn1 [Example 184, 2-[6-cyclopropyl-4-(difluoromethyl)-5-fluoro-1-oxophthalazin-2-yl]-N-(5-fluoropyrimidin-2-yl)acetamide] |
| > 5.00 | 5.40 |  | CC(C)c1nn(CC(=O)NCC2COCCN2C)c(=O)c2ccc(Br)cc12 (centres unmarked) [Example 58, 2-(6-bromo-1-oxo-4-propan-2-ylphthalazin-2-yl)-N-[(4-methylmorpholin-3-yl)methyl]acetamide] |
| > 5.00 | 5.37 |  | CC1CC(NC(=O)Cn2nc(C(C)C)c3cc(Br)ccc3c2=O)CCO1 (centres unmarked) [Example 43, 2-(6-bromo-1-oxo-4-propan-2-ylphthalazin-2-yl)-N-(2-methyloxan-4-yl)acetamide] |
| > 5.00 | 5.61 |  | CC(C)c1nn(CC(=O)NC2CCC(=O)N(C)C2)c(=O)c2ccc(Br)cc12 (centres unmarked) [Example 66, 2-(6-bromo-1-oxo-4-propan-2-ylphthalazin-2-yl)-N-(1-methyl-6-oxopiperidin-3-yl)acetamide] |
| > 5.00 | 5.95 |  | CC(C)c1nn(CC(=O)NC2CCOCC2)c(=O)c2ccc(Br)cc12 [Example 53, 2-(6-bromo-1-oxo-4-propan-2-ylphthalazin-2-yl)-N-(oxan-4-yl)acetamide] |
| > 5.00 | 6.28 |  | CC(C)c1nn(CC(=O)Nc2ncccc2F)c(=O)c2ccc(Br)cc12 [Example 35, 2-(6-bromo-1-oxo-4-propan-2-ylphthalazin-2-yl)-N-(3-fluoropyridin-2-yl)acetamide] |
| > 5.00 | 5.52 |  | CC(C)c1nn(CC(=O)NC2CN(C(=O)OC(C)(C)C)CC(F)(F)C2)c(=O)c2ccc(Br)cc12 (centres unmarked) [Example 10, tert-Butyl-5-[[2-(6-bromo-4-isopropyl-1-oxo-phthalazin-2-yl)acetyl]amino]-3,3-difluoro-piperidine-1-carboxylate] |
| > 5.00 | 7.34 |  | CC(C)c1nn(CC(=O)N[C@@H]2CCCN(C3CC3)C2)c(=O)c2ccc(Br)cc12 [Example 5, (R)(6-Bromo-4-Isopropyl-1-Oxophthalazin-2(1H)-yl)-N-(1-Cyclopropylpiperidin-3-yl)Acetamide] |
| > 5.00 | 6.79 |  | CC(C)c1nn(CC(=O)Nc2ncc(C(F)(F)F)cc2F)c(=O)c2ccc(Br)cc12 [Example 41, 2-(6-bromo-1-oxo-4-propan-2-ylphthalazin-2-yl)-N-[3-fluoro-5-(trifluoromethyl)pyridin-2-yl]acetamide] |
| > 5.00 | 5.53 |  | CC(C)c1nn(CC(=O)NCC2CCCO2)c(=O)c2ccc(Br)cc12 (centres unmarked) [Example 130, 2-(6-bromo-1-oxo-4-propan-2-ylphthalazin-2-yl)-N-(oxolan-2-ylmethyl)acetamide] |
| > 5.00 | 5.34 |  | CC(C)c1nn(CC(=O)Nc2cc(C(F)(F)F)nn2C)c(=O)c2ccc(Br)cc12 [Example 116, 2-(6-bromo-1-oxo-4-propan-2-ylphthalazin-2-yl)-N-[2-methyl-5-(trifluoromethyl)pyrazol-3-yl]acetamide] |
| > 5.00 | 5.19 |  | CC(C)c1nn(CC(=O)NC2CC(n3cccn3)C2)c(=O)c2ccc(Br)cc12 (centres unmarked) [Example 117, 2-(6-bromo-1-oxo-4-propan-2-ylphthalazin-2-yl)-N-(3-pyrazol-1-ylcyclobutyl)acetamide] |
| > 5.00 | 7.01 |  | O=C(Cn1nc(CF)c2c(F)c(Br)ccc2c1=O)Nc1ncc(F)cn1 [Example 148, 2-[6-bromo-5-fluoro-4-(fluoromethyl)-1-oxophthalazin-2-yl]-N-(5-fluoropyrimidin-2-yl)acetamide] |
| > 5.00 | 6.02 |  | CC(C)c1nn(CC(=O)Nc2cccnn2)c(=O)c2ccc(Br)cc12 [Example 70, 2-(6-bromo-1-oxo-4-propan-2-ylphthalazin-2-yl)-N-pyridazin-3-ylacetamide] |
